Laboratory results taken from US10077261B2, “Imidazolin-5-one derivative useful as FASN inhibitors for the treatment of cancer” (Janssen Pharmaceutica NV, priority 2012, dated 2018).

Assays:
A2780 ovarian cells [1] = experiment: A2780 ovarian cell proliferation assay in lipid reduced medium, without palmitate (MTT); type: cell-based; settings: Homo sapiens, A2780, 96 h; read-out: pIC50 A2780 Ovarian Cell, Without Palmitate (converted)
[2] = test system: PC-3M-Luc-C6 prostate cells; experiment: In vitro PC-3M-Luc-C6 prostate cell proliferation assay in lipid reduced medium; type: cell-based; settings: 96 h, read-out: pIC50 PC-3M-Luc-C6 prostate cell (converted)
[3] = target: T1, hFASN enzyme (full length) (Homo sapiens, UniProt P49327); experiment: Fatty Acid Synthase (FASN) inhibition scintillation proximity assay; type: biochemical; settings: for inhibition at 10 µM: read-out: Human FASN % inhibition @ 10 μM, 10 μM test compound; for IC50: read-out: Human FASN pIC50 (converted)
T1 construct: 10 μL hFASN enzyme (full length, 300 ng, purified in house); made in house
T1 sequence (P49327 whole entry): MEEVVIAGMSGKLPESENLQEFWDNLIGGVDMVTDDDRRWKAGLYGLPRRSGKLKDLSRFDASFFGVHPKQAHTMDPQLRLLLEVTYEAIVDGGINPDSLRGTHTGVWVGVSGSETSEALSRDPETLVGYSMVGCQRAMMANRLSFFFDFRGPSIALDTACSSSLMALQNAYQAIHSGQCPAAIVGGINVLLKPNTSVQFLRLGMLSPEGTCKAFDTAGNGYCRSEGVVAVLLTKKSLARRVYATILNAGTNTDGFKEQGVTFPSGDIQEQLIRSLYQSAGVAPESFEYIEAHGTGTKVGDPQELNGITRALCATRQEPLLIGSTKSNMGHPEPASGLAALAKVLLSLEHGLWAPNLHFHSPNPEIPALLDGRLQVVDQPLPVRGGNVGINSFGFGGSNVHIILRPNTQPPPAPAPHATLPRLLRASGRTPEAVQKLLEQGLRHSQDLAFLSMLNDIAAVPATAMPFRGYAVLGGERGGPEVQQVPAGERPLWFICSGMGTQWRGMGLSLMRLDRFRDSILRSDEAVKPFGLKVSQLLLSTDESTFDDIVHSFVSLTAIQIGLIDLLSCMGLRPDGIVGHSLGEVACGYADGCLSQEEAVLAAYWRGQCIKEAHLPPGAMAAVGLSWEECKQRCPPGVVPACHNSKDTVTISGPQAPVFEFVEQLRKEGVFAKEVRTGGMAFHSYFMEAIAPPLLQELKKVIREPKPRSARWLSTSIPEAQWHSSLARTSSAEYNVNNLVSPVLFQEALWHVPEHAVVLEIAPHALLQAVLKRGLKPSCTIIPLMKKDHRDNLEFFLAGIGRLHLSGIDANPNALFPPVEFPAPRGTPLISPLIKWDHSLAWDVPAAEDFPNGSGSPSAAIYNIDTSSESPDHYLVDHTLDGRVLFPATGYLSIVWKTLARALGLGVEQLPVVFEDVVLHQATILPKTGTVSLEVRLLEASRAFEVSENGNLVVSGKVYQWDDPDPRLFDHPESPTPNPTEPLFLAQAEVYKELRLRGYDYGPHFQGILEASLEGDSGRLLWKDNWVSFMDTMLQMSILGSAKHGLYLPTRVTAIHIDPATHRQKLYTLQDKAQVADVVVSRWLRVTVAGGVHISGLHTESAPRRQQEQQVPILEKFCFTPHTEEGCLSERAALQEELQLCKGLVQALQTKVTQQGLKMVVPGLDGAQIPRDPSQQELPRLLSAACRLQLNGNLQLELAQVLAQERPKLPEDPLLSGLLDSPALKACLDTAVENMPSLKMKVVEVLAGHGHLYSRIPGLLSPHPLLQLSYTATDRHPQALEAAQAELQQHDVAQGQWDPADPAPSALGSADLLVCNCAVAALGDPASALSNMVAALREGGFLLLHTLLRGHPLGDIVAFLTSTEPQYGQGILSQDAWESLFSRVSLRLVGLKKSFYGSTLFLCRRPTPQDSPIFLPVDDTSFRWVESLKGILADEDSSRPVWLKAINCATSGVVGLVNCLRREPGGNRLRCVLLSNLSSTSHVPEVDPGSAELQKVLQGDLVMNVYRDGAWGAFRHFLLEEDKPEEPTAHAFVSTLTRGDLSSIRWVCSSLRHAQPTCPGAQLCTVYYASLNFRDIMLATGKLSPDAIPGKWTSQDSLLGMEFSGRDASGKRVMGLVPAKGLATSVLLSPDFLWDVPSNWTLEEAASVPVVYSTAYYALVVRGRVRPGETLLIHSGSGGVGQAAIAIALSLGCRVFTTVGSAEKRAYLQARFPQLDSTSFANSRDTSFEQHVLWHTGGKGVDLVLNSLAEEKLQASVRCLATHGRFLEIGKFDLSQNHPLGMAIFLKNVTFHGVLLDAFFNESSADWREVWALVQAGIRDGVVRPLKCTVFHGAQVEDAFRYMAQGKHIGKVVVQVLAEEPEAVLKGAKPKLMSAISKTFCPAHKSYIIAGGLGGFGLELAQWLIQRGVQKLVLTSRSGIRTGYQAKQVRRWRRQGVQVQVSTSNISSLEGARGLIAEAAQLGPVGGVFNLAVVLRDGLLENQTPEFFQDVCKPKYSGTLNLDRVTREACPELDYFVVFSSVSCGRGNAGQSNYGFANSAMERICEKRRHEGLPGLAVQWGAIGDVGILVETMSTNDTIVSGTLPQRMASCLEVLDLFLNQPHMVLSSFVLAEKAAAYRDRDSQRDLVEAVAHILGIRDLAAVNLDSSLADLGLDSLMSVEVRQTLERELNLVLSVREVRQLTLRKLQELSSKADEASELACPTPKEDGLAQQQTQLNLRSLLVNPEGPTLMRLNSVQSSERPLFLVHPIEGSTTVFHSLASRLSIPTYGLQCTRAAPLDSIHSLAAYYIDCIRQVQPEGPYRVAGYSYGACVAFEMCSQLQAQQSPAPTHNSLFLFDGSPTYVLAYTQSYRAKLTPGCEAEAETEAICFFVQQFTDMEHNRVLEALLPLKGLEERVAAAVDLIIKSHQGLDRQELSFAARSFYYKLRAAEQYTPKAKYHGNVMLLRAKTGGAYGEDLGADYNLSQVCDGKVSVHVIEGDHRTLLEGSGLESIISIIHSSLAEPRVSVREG
Outline: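 Purified full-length hFASN (300 ng) converts ^3H-acetyl-CoA plus malonyl-CoA to ^3H-palmitate in 100 mM KH2PO4 pH 7.5, 1 mM DTT; compounds tested at 0.01–30 μM. Product captured on streptavidin imaging beads and read by LEADseeker at 610 nm after ≥24 h; 4-parameter logistic fit versus controls.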

A2780 ovarian cells [4] = experiment: A2780 ovarian cell proliferation assay in lipid reduced medium, with palmitate (MTT); type: cell-based; settings: Homo sapiens, A2780, 96 h; read-out: pIC50 A2780 Ovarian Cell, With Palmitate (converted)
Outline: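 Seeded cells were switched next day to lipid-reduced serum, exposed to compound and 25 μM palmitate complexed with fatty-acid-free BSA, and incubated 96 h. Proliferation was then determined by MTT absorbance at 544 nm, with a best-fit curve of signal against concentration.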

[5] = target: Fatty Acid Synthase Keto-reductase Domain (FASN KR) (Homo sapiens, UniProt P49327); experiment: Fatty Acid Synthase keto-reductase domain (FASN KR) inhibition, NADPH oxidation at 340 nm
Fatty Acid Synthase Keto-reductase Domain (FASN KR), sequence (P49327 whole entry, the tested form may be a part): as the sequence (P49327 whole entry) above
Description: After 20 minutes incubation at room temperature the plate was measured again (T2).
The decrease in absorbance was calculated as (Absorbance before incubation T1)−(Absorbance following incubation T2).
A plot of Controlmin versus test compound concentration was fitted to a 4-parameter logistic curve using a non-linear least squares regression method.

[6] = test system: LNCaP-Vancouver prostate cells; experiment: In vitro LNCaP Vancouver prostate cell proliferation assay in lipid reduced medium; type: cell-based; settings: read-out: pIC50 LNCaP_Vancouver prostate cell (converted)

SMILES	IC50 (A2780 ovarian cells [1])	IC50 [2]	inhibition at 10 µM [3]	IC50 [3]	IC50 (A2780 ovarian cells [4])	IC50 [5]	IC50 [6]
COCCN1CCC2(CC1)N=C(c1ccc(-c3ccc4[nH]ncc4c3)cc1)N(C[C@@H]1CCN(C(=O)C3CC3)C1)C2=O [compound 748, 3-{[(3R)-1-(Cyclopropylcarbonyl)pyrrolidin-3-yl]methyl}-2-[4-(1H-indazxol-5-yl)phenyl]-8-(2-methoxyethyl)-1,3,8-trisazaspiro[4.5]dec-1-en-4-one]	~224 nM	575 nM	99%	355 nM	> 10000 nM	525 nM	3020 nM
O=C(C1CC1)N1CC[C@@H](CN2C(=O)C3(CC3)N=C2c2ccc(-c3ccc4c(=O)[nH]ccc4c3)cc2)C1 [compound 467, 6-[4-(6-{[(3R)-1-(Cyclopropylcarbonyl)pyrrolidin-3-yl]methyl}-7-oxo-4,6-diazaspiro[2.4]hept-4-en-5-yl)phenyl]isoquinolin-1(2H)-one]	759 nM	776 nM	93%	331 nM	> 10000 nM	977 nM	2880 nM
COc1nccc2cc(-c3ccc(C4=NC5(CC5)C(=O)N4C[C@@H]4CCN(C(=O)C5CC5)C4)cc3)ccc12 [compound 468, 6-{[(3R)-1-(Cyclopropylcarbonyl)pyrrolidin-3-yl]methyl}-5-[4-(1-methoxyisoquinolin-6-yl)phenyl]-4,6-diazaspiro[2.4]hept-4-en-7-one]	661 nM	550 nM	90%	427 nM	> 10000 nM	1580 nM	2040 nM
COCc1c2ccc(-c3ccc(C4=NC5(CC5)C(=O)N4C[C@@H]4CCN(C(=O)C5CC5)C4)cc3)cc2nn1C [compound 486, 6-{[(3R)-1-(Cyclopropylcarbonyl)pyrrolidin-3-yl]methyl}-5-{4-[3-(methoxymethyl)-2-methyl-2H-indazol-6-yl]phenyl}-4,6-diazaspiro[2.4]hept-4-en-7-one]	~2190 nM	~2820 nM	81%	1510 nM	> 10000 nM	2630 nM	4470 nM
Cc1cc(-c2ccc3oc(C)c(C)c3c2)ccc1C1=NC2(CC2)C(=O)N1CC1CN(C(=O)C2CC2)C1 [compound 398, 6-{[1-(Cyclopropylcarbonyl)azetidin-3-yl]methyl}-5-[4-(2,3-dimethyl-1-benzofuran-5-yl)-2-methylphenyl]-4,6-diazaspiro[2.4]hept-4-en-7-one]	~2290 nM	1740 nM	102%	263 nM	> 10000 nM	955 nM	2340 nM
Cc1oc2ccc(-c3ccc(C4=NC5(CC5)C(=O)N4C[C@@H]4CCN(C(=O)C5CC5)C4)cc3F)cc2c1C [compound 399, 6-{[(3R)-1-(Cyclopropylcarbonyl)pyrrolidin-3-yl]methyl}-5-[4-(2,3-dimethyl-1-benzofuran-5-yl)-3-fluorophenyl]-4,6-diazaspiro[2.4]hept-4-en-7-one]	> 6170 nM	> 3020 nM	99%	363 nM	> 6170 nM	1320 nM	> 3020 nM
Nc1cc(-c2ccc(C3=NC4(CC4)C(=O)N3C[C@@H]3CCN(C(=O)C4CC4)C3)cc2)ccn1 [compound 452, 5-[4-(2-Aminppyridin-4-yl)phenyl]-6-{[(3R)-1-(cyclopropylcarbonyl)pyrrolidin-3-yl]methyl}-4,6-diazaspiro[2.4]hept-4-en-7-one]	631 nM	550 nM	97%	229 nM	> 10000 nM	525 nM	2040 nM
O=C(C1CC1)N1CC[C@@H](CN2C(=O)C3(CC3)N=C2c2ccc(-c3ccc4occc4c3)nc2)C1 [compound 420, 5-[6-(1-Benzofuran-5-yl)pyridin-3-yl]-6-{[(3R)-1-(cyclopropylcarbonyl)pyrrolidin-3-yl]methyl}-4,6-diazaspiro[2.4]hept-4-en-7-one]	~2090 nM	1660 nM	92%	490 nM	> 10000 nM	977 nM	6460 nM
O=C([C@H]1CCCO1)N1CC(CN2C(=O)C3(CCOCC3)N=C2c2ccc(-c3ccc4cccnc4c3)cc2)C1 [compound 700, 2-(4-Quinolin-7-ylphenyl)-3-({1-[(2R)-tetrahydro-furan-2-ylcarbonyl]azetidin-3-yl}methyl)-8-oxa-1,3-diazaspiro[4.5]dec-1-en-4-one]	468 nM	1000 nM	94%	240 nM	> 10000 nM	832 nM	3390 nM
O=C(N1CCCC1)N1CC[C@@H](CN2C(=O)C3(CCOC3)N=C2c2ccc(-c3ccc4cccnc4c3)cc2)C1 (stereo partly drawn) [compound 685, 3-{[(3S)-1-(Pyrrolidin-1-ylcarbonyl)pyrrolidin-3-yl]methyl}-2-(4-quinolin-7-ylphenyl)-7-oxa-1,3-diazaspiro[4.4]non-1-en-4-one]	1230 nM	1170 nM	84%	851 nM	> 10000 nM	1620 nM	3020 nM

Molecules with a lower IC50 [5], results first:

IC50 (A2780 ovarian cells [1])	IC50 [2]	inhibition at 10 µM [3]	IC50 [3]	IC50 (A2780 ovarian cells [4])	IC50 [5]	IC50 [6]	SMILES
~200 nM	178 nM	101%	135 nM	> 10000 nM	295 nM	1150 nM	O=C(C1CC1)N1CC[C@@H](CN2C(=O)C3(CC3)N=C2c2ccc(-c3ccc4[nH]ncc4c3)c(F)c2)C1 [compound 414, 6-{[(3R)-1-(Cyclopropylcarbonyl)pyrrolidin-3-yl]methyl}-5-[3-fluoro-4-(1H-indazol-5-yl)phenyl]-4,6-diazaspiro[2.4]hept-4-en-7-one]
132 nM	126 nM	102%	64.6 nM	> 6170 nM	209 nM	525 nM	O=C(C1CC1)N1CC[C@@H](CN2C(=O)C3(CC3)N=C2c2ccc(-c3ccc4[nH]ccc4c3)cn2)C1 [compound 341, (R)-5-(5-(1H-indol-5-yl)pyridin-2-yl)-6-((1-(cyclopropanecarbonyl)pyrrolidin-3-yl)methyl)-4,6-diazaspiro[2.4]hept-4-en-7-one]
117 nM	219 nM	96%	115 nM	> 10000 nM	182 nM	1000 nM	O=C([C@H]1CCCO1)N1CC[C@@H](CN2C(=O)C3(CCOC3)N=C2c2ccc(-c3ccc4cccnc4c3)cc2)C1 (stereo partly drawn) [compound 682, 2-(4-Quinolin-7-ylphenyl)-3-({(3R)-1-[(2R)-tetrahydro-furan-2-ylcarbonyl]pyrrolidin-3-yl}methyl)-7-oxa-1,3-diazaspiro[4.4]non-1-en-4-one]
~44.7 nM	58.9 nM	104%	55 nM	> 10000 nM	69.2 nM	288 nM	N#Cc1ccc2nc(-c3ccc(C4=NC5(CC5)C(=O)N4CC4CN(C(=O)C5CC5)C4)c(F)c3)sc2c1 [compound 268, 2-(4-(6-((1-(cyclopropanecarbonyl)azetidin-3-yl)methyl)-7-oxo-4,6-diazaspiro[2.4]hept-4-en-5-yl)-3-fluorophenyl)benzo[d]thiazole-6-carbonitrile]
30.9 nM	38.9 nM	101%	22.9 nM	> 10000 nM	58.9 nM	234 nM	O=C(C1CC1)N1CC(CN2C(=O)C3(CC3)N=C2c2ccc(-c3ccc4cc[nH]c4c3)cc2)C1 [compound 299, 5-(4-(1H-indol-6-yl)phenyl)-6-((1-(cyclopropanecarbonyl)azetidin-3-yl)methyl)-4,6-diazaspiro[2.4]hept-4-en-7-one]
~2.51 nM	1.91 nM	98%	22.9 nM	> 10000 nM	35.5 nM	10.5 nM	O=C(N1CC[C@@H](CN2C(=O)C3(CC3)N=C2c2ccc(-c3ccc4cc(F)ccc4c3)cc2F)C1)C1(O)CC1 [compound 381, (R)-5-(2-fluoro-4-(6-fluoronaphthalen-2-yl)phenyl)-6-((1-(1-hydroxycyclopropanecarbonyl)pyrrolidin-3-yl)methyl)-4,6-diazaspiro[2.4]hept-4-en-7-one]
~1.07 nM	~2.45 nM	102%	20 nM	> 10000 nM	27.5 nM	5.01 nM	Cn1cc(-c2ccc(-c3ccc(C4=NC5(CC5)C(=O)N4C[C@@H]4CCN(C(=O)C5(O)CC5)C4)c(F)c3)cc2)cn1 [compound 379, (R)-5-(3-fluoro-4′-(1-methyl-1H-pyrazol-4-yl)-[1,1′-biphenyl]-4-yl)-6-((1-(1-hydroxycyclopropanecarbonyl)pyrrolidin-3-yl)methyl)-4,6-diazaspiro[2.4]hept-4-en-7-one]
